In patent US20090062130A1, “NUCLEOSOME-BASED BIOSENSOR” (UNIVERSITY OF PITTSBURGH - OF THE COMMONWEALTH SYSTEM OF …, priority 2006, published 2009):

How the values were obtained:
[1] = system: ER; settings: ligand plus estrogen receptor plus Brg1 complex
Description: To reconstitute specific chromatin remodeling in vitro, one would co-incubate wild type or mutant ERE-containing nucleosomes with E2/ER or ICI/ER as in D2.2a. Equimolar Brg1, obtainable from Jena Biosciences (Dortmund, Germany), would be added and measurement would be made of the FRET loss that is specific to wt ERE-containing nucleosomes in a buffer of 12 mM HEPES, pH 7.9, 60 mM KCl, 15% glycerol, catalase, 10 mM DTT, 2 mM MgCl2, 4 mM ATP, 0.4% (w/v) glucose, 0.1 mg/ml glucose oxidase, and 0.02 mg/ml catalase. In the absence of measurable FRET loss, Flag-tagged BAF57, BAF155 and BAF170 could 1 be added in a 2:1 ratio, relative to Brg1, in keeping with observations in publication 69. Ligand-dependent measurement of FRET loss would be monitored.
The remodeling reaction is expected to be ATP-dependent. This would be tested by ATP deletion in relation to incubation conditions that had decreased FRET. Also, initial validation of reagents would be effected done through measurement of micrococcal nuclease sensitivity of the mononucleosome bound DNA.

[2] = system: ER; settings: recombinant protein system, equimolar estrogen, ICI, tamoxifen, cholesterol
Source text: Use of a recombinant protein system would be preferred to use of cell extracts in this context. A recombinant protein system would facilitate modulation of component stoichiometries.

ER, sequence (P03372 whole entry): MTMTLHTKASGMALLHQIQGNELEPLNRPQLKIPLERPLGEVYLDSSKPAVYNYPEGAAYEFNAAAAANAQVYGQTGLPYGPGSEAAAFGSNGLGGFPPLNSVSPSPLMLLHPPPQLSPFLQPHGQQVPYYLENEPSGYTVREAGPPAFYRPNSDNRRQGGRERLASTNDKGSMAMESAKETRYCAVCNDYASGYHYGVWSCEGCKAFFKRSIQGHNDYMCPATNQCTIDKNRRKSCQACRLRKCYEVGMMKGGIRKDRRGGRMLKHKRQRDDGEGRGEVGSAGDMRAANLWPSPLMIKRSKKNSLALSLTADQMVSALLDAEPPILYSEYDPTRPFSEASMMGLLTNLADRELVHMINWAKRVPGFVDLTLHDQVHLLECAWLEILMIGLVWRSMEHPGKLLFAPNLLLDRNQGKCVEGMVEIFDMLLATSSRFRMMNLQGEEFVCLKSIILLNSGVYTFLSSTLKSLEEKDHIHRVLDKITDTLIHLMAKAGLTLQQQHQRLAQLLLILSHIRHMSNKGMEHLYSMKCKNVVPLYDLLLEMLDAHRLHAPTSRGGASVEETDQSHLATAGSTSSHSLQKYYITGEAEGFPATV

Compound	loss of FRET signal [1]	distribution of ligand into sorted pools [2]
C[C@]12CC[C@@H]3c4ccc(O)cc4C[C@@H](CCCCCCCCC[S+]([O-])CCCC(F)(F)C(F)(F)F)[C@H]3[C@@H]1CC[C@@H]2O (stereo partly shown) [ICI, ICI182780]	negative controls	–
CC(C)CCC[C@@H](C)[C@H]1CC[C@H]2[C@@H]3CC=C4C[C@@H](O)CC[C@]4(C)[C@H]3CC[C@]12C [cholesterol]	negative controls	would not be carried forward through the sort
Vitamin D3	negative controls	–
